Assay results from publication PMC7190660, “Standardised comparison of limonene-derived monoterpenes identifies structural determinants of anti-inflammatory activity” (Scientific Reports, 2020).
Values joined by “and” are separate entries in the source; they are usually repeats but may differ in a detail not shown here. Identical values can stand only once.

What was measured:
[1] = system: LPS-induced NO production in Raw 264.7 macrophages; assay: Primary screening: LPS-induced NO production (nitrite, Griess reaction) in Raw 264.7 macrophages; type: cell-based, mouse; conditions: for Decrease (inhibition) of LPS-induced NO production: at the highest concentration tested; for % inhibition of LPS-induced NO production: at the highest non-cytotoxic concentration tested, nitrite in supernatants; for Effect on LPS-induced NO production / anti-inflammatory activity (in words): non-cytotoxic concentrations; for IC50: Mus musculus, RAW264.7, Raw 264.7 cell line
Description: (§1) Raw 264.7 cells were plated at a density of 3 × 10^5 cells/mL and left to stabilize for up to 24 h.
This vehicle was used as control. Lipopolysaccharides from Escherichia coli 026:B6 (LPS; Sigma-Aldrich Co.) were dissolved in phosphate buffered saline (PBS). Recombinant human interleukin-1β (IL-1β; Peprotech, Rocky Hill, NJ, USA) was dissolved in PBS containing 0.1% Bovine Serum Albumin.
NO production was measured as the amount of nitrite accumulated in the culture supernatants using the Griess reaction which is based in the reaction of nitrite with sulfanilamide under acidic conditions, yielding a diazonium ion that couples to N-(1-napthtyl)ethylenediamine dihydrochloride to form a water-soluble red-violet azo dye that absorbs at 550 nm[51]. Briefly, equal volumes of culture supernatants and reagents [equal volumes of 1% (w/v) sulphanilamide in 5% (v/v) phosphoric acid and 0.1% (w/v) N-(1-napthtyl)ethylenediamine dihydrochloride] were mixed and incubated for 10 min, at room temperature, in the dark. The concentration of nitrite accumulated in the culture supernatants was calculated by interpolation of the absorbance of each sample, read in Biotek Synergy HT plate reader (Biotek), in a standard curve of sodium nitrite.

[2] = system: Raw 264.7 cells; assay: Cytotoxicity by resazurin reduction assay in Raw 264.7 cells; type: cell-based, mouse; conditions: viability not decreased by more than 30% relative to LPS alone (ISO 10993-5), LPS 1 µg/mL 18 h
Description: Various concentrations of the test compounds, in the absence or presence of LPS, were first evaluated for cytotoxicity using the resazurin reduction assay[26]
as §1
Resazurin is a redox dye used as an indicator of cellular metabolic activity for various applications, namely cell viability, proliferation and toxicity. The assay is based on the intracellular reduction of the non-fluorescent resazurin to resorufin (a fluorescent and pink coloured compound) by mitochondrial or microsomal enzymes that use NADH or NADPH as electron sources. Since only metabolically active cells can reduce the dye, the increase in fluorescence or absorbance is directly proportional to the number of viable cells[26],[50].
To select non-cytotoxic concentrations of the test compounds, the resazurin solution was added to each well to a final concentration of 50 µM, 90 min before the end of the treatment period indicated in the figure legends. Then, absorbances at 570 nm and 620 nm (reference wavelength) were read in a Biotek Synergy HT plate reader (Biotek, Winooski, VT, USA).

[3] = system: human chondrocytes; assay: IL-1β-induced NOS2 protein, NO production and pro-IL-1β protein in primary human chondrocytes; type: cell-based; conditions: IL-1β 10 ng/mL 24 h, carvone 666 or 1331 µM, Bay 11-7082 5 µM
Description: The cells were treated with 10 ng/mL IL-1β for 24 h (a, b, c and d), following pre-treatment for 1 h with 666 or 1331 µM of (S)-(+)-carvone (4). As a positive control, the cells were similarly treated with 5 μM Bay 11-7082 (b and c). Control cells (Ctrl) were treated with the vehicle (0.1% DMSO) in the absence of IL-1β. Each column represents the mean ± SEM of, at least, three independent experiments. The blots shown are representative of, at least, three independent experiments and are cropped for clarity and conciseness.
Briefly, cartilage shavings underwent sequential digestion with Pronase (Roche, Indianapolis, IN, USA) and collagenase A (Roche, Indianapolis, IN, USA). To avoid chondrocyte dedifferentiation, non-proliferating monolayer cultures were setup by plating 1× 10^6 chondrocytes/mL in HAM: F12 medium containing 3% antibiotics and 5% FBS and allowed to recover for 24 h at 37 °C in a humidified atmosphere with 5% CO2. Prior to any treatments, chondrocytes were serum-starved overnight and thereafter maintained in culture medium without FBS.
This vehicle was used as control. […] Recombinant human interleukin-1β (IL-1β; Peprotech, Rocky Hill, NJ, USA) was dissolved in PBS containing 0.1% Bovine Serum Albumin.
Total cell extracts were prepared and western blot was performed as described before[54]. […] Immune complexes were detected with Enhanced ChemiFluorescence reagent (GE Healthcare) in the imaging system Thyphoon FLA 9000 (GE Healthcare). The membranes were reprobed with a mouse monoclonal anti-β-Tubulin I antibody (Sigma-Aldrich Co.), diluted at 1:20000, as a loading control, for 1 h at room temperature. Image analysis was performed with TotalLab TL120 software (Nonlinear Dynamics Ltd).

[4] = system: NOS2; assay: LPS-induced NOS2 mRNA (qRT-PCR) and protein (western blot) in Raw 264.7; type: cell-based, mouse; conditions: 1 h pre-treatment, Bay 11-7082 5 μM
Description: Macrophage cultures were treated with 1 µg/mL LPS, for 6 h (a) or 18 h (b), following pre-treatment for 1 h with 666 µM of each test compound (a) or with the concentrations indicated in (b). […] Control cells (Ctrl) were treated with the vehicle (0.1% DMSO) in the absence of LPS. Each column represents the mean ± SEM of four independent experiments. The blots shown are representative of, at least, three independent experiments and are cropped for clarity and conciseness.
Total RNA extraction and qRT-PCR were performed as described before[52]. Briefly, total RNA was extracted using the NZYol (NZYTECH, Lisbon, Portugal) and quantified in a NanoDrop ND-1000 spectrophotometer at 260 nm. RNA purity was assessed by analysis of 260/230 and 260/280 absorption ratios. The cDNA was reverse-transcribed using NZY First Strand cDNA Synthesis Kit (NZYTECH), beginning with 2 µg of total RNA. qRT-PCR was performed, in duplicate for each sample, using NZYSpeedy qPCR Green Master Mix (2×) (NZYTECH) on CFX96 Real-Time PCR Detection System (Bio-Rad, Hercules, CA, USA).
Gene expression changes were analysed using the built-in CFX Manager software which enables the analysis of the results by the Pfaffl method, a variation of the ΔΔCT method corrected for gene-specific efficiencies[53]. The results were normalized using Hprt1 as housekeeping gene.
Total cell extracts were prepared and western blot was performed as described before[54]. Briefly, total (25 µg for Raw 264.7 cell line and 20 µg for human chondrocytes) proteins were separated by SDS-PAGE under reducing conditions and electrotransferred onto PVDF membranes. […] Immune complexes were detected with Enhanced ChemiFluorescence reagent (GE Healthcare) in the imaging system Thyphoon FLA 9000 (GE Healthcare). The membranes were reprobed with a mouse monoclonal anti-β-Tubulin I antibody (Sigma-Aldrich Co.), diluted at 1:20000, as a loading control, for 1 h at room temperature. Image analysis was performed with TotalLab TL120 software (Nonlinear Dynamics Ltd).

Cc1ccc(C(C)C)cc1O [carvacrol (18), carvacrol]
Decrease (inhibition) of LPS-induced NO production ([1]; Raw 264.7): less than 20%
% inhibition of LPS-induced NO production ([1]; Raw 264.7): 10.78 ± 1.34 % ± SEM
Effect on LPS-induced NO production / anti-inflammatory activity (in words) ([1]; Raw 264.7): almost no activity
Highest non-cytotoxic concentration tested [2]: 33 µM and 5 µg/mL

Cc1ccc(C(C)C)c(O)c1 [thymol (19), thymol]
Decrease (inhibition) of LPS-induced NO production ([1]; Raw 264.7): less than 20%
% inhibition of LPS-induced NO production ([1]; Raw 264.7): 8.93 ± 1.91 % ± SEM
Effect on LPS-induced NO production / anti-inflammatory activity (in words) ([1]; Raw 264.7): showed no activity
Highest non-cytotoxic concentration tested [2]: 83 µM and 12.5 µg/mL

CC1=CC[C@H](C(C)(C)O)CC1=O [(S)-8-hydroxycarvotanacetone (20), (S)-5-(2-hydroxypropan-2-yl)-2-methylcyclohex-2-en-1-one]
IC50 [1]: 762 µM and 116 µg/mL
Decrease (inhibition) of LPS-induced NO production ([1]; Raw 264.7): greater than 30%
% inhibition of LPS-induced NO production ([1]; Raw 264.7): 78.43 ± 1.60 % ± SEM
Effect on LPS-induced NO production / anti-inflammatory activity (in words) ([1]; Raw 264.7): significant activity
Highest non-cytotoxic concentration tested [2]: 2378 µM and 400 µg/mL

C=C(C)[C@@H]1CC[C@@H](C)C[C@H]1O [(−)-isopulegol (11), (−)-isopulegol]
% inhibition of LPS-induced NO production ([1]; Raw 264.7): −12.63 ± 1.30 % ± SEM
Effect on LPS-induced NO production / anti-inflammatory activity (in words) ([1]; Raw 264.7): inactive
Effect on LPS-induced NO production / anti-inflammatory activity (in words) ([1]; Raw 264.7, listed as 11): no effect
Highest non-cytotoxic concentration tested [2]: 2593 µM and 400 µg/mL

Cc1ccc(S(=O)(=O)/C=C/C#N)cc1 [Bay 11-7082, reference compound]
NO production relative to cells treated with LPS alone ([1]; pre-treatment with 5 μM, Raw 264.7): 48.1 ± 5.2%
IL-1β-induced NO production [3]: significantly decreased
IL-1β-induced NOS2 protein levels [3]: significantly decreased
LPS-induced NOS2 mRNA levels ([4]; LPS 1 µg/mL 6 h, test compounds 666 µM): decreased
LPS-induced NOS2 protein levels ([4]; LPS 1 µg/mL 18 h): decreased

CC(C)=C1CC[C@H](C)CC1=O [(S)-(−)-pulegone (13), (S)-(−)-pulegone]
% inhibition of LPS-induced NO production ([1]; Raw 264.7): 35.60 ± 4.86 % ± SEM
Effect on LPS-induced NO production / anti-inflammatory activity (in words) ([1]; Raw 264.7): weak activity
Highest non-cytotoxic concentration tested [2]: 2628 µM and 400 µg/mL

C=C(C)[C@@H]1CC[C@@H](C)[C@H](O)C1 [(−)-dihydrocarveol (9), (−)-dihydrocarveol]
IC50 [1]: 2.14 mM and 330 µg/mL
Decrease (inhibition) of LPS-induced NO production ([1]; Raw 264.7): greater than 30%
% inhibition of LPS-induced NO production ([1]; Raw 264.7): 62.03 ± 8.62 % ± SEM
Highest non-cytotoxic concentration tested [2]: 2593 µM and 400 µg/mL

C=C(C)[C@@H]1CC[C@](C)(O)[C@@H](O)C1 [(1 S,2 S,4 R)-(+)-limonene-1,2-diol (3), (1 S,2 S,4 R)-(+)-limonene-1,2-diol]
Decrease (inhibition) of LPS-induced NO production ([1]; Raw 264.7): less than 20%
% inhibition of LPS-induced NO production ([1]; Raw 264.7): 13.90 ± 2.03 % ± SEM
Effect on LPS-induced NO production / anti-inflammatory activity (in words) ([1]; Raw 264.7): inactive
Highest non-cytotoxic concentration tested [2]: 2349 µM and 400 µg/mL

C=C(C)[C@@H]1CCC(C)C(=O)C1 (single isomer, unassigned; (+)) [(+)-dihydrocarvone (7), (+)-dihydrocarvone]
IC50 [1]: 1.47 mM and 224 µg/mL
Decrease (inhibition) of LPS-induced NO production ([1]; Raw 264.7): greater than 30%
% inhibition of LPS-induced NO production ([1]; Raw 264.7): 73.57 ± 2.81 % ± SEM
Highest non-cytotoxic concentration tested [2]: 2628 µM and 400 µg/mL

CC(C)[C@@H]1CC[C@@H](C)C[C@H]1O [(−)-menthol (15), (−)-menthol]
% inhibition of LPS-induced NO production ([1]; Raw 264.7): −6.90 ± 1.24 % ± SEM
Effect on LPS-induced NO production / anti-inflammatory activity (in words) ([1]; Raw 264.7): no effect
Highest non-cytotoxic concentration tested [2]: 2560 µM and 400 µg/mL

C=C(C)[C@H]1CC=C(C)CC1 [(R)-(+)-limonene (2), (R)-(+)-limonene]
% inhibition of LPS-induced NO production ([1]; Raw 264.7): −1.80 ± 0.55 % ± SEM
Effect on LPS-induced NO production / anti-inflammatory activity (in words) ([1]; Raw 264.7): inactive
Effect on LPS-induced NO production / anti-inflammatory activity (in words) ([1]; Raw 264.7, listed as 2): no effect

Cc1ccc(C(C)C)cc1 [p-cymene (17), p-cymene]
Decrease (inhibition) of LPS-induced NO production ([1]; Raw 264.7): less than 20%
% inhibition of LPS-induced NO production ([1]; Raw 264.7): 8.50 ± 5.53 % ± SEM
Effect on LPS-induced NO production / anti-inflammatory activity (in words) ([1]; Raw 264.7): showed no activity
Highest non-cytotoxic concentration tested [2]: 37 µM and 5 µg/mL

CC(C)=C1CC[C@@H](C)CC1=O [(R)-(+)-pulegone (12), (R)-(+)-pulegone]
% inhibition of LPS-induced NO production ([1]; Raw 264.7): 7.80 ± 2.98 % ± SEM
Effect on LPS-induced NO production / anti-inflammatory activity (in words) ([1]; Raw 264.7): inactive
Effect on LPS-induced NO production / anti-inflammatory activity (in words) ([1]; Raw 264.7, listed as 12): no effect
Highest non-cytotoxic concentration tested [2]: 1314 µM and 200 µg/mL

C=C(C)[C@@H]1CC=C(C)CC1 [(S)-(−)-limonene (1), (S)-(−)-limonene]
% inhibition of LPS-induced NO production ([1]; Raw 264.7): 11.08 ± 4.65 % ± SEM
Effect on LPS-induced NO production / anti-inflammatory activity (in words) ([1]; Raw 264.7): inactive
Effect on LPS-induced NO production / anti-inflammatory activity (in words) ([1]; Raw 264.7, listed as 1): no effect

C=C(C)[C@@H]1CC=C(C)C(O)C1 (single isomer, unassigned; (-)) [(−)-carveol (6), (−)-carveol]
IC50 [1]: 2 mM and 304 µg/mL
Decrease (inhibition) of LPS-induced NO production ([1]; Raw 264.7): greater than 30%
% inhibition of LPS-induced NO production ([1]; Raw 264.7): 52.30 ± 5.54 % ± SEM
Highest non-cytotoxic concentration tested [2]: 2628 µM and 400 µg/mL

C=C(C)[C@H]1CC[C@H](C)[C@@H](O)C1 [(+)-dihydrocarveol (8), (+)-dihydrocarveol]
IC50 [1]: 532 µM and 82.1 µg/mL
Decrease (inhibition) of LPS-induced NO production ([1]; Raw 264.7): greater than 30%
% inhibition of LPS-induced NO production ([1]; Raw 264.7): 71.03 ± 2.28 % ± SEM
Highest non-cytotoxic concentration tested [2]: 1297 µM and 200 µg/mL

C=C(C)[C@H]1CC[C@H](C)C[C@@H]1O [(+)-isopulegol (10), (+)-isopulegol]
% inhibition of LPS-induced NO production ([1]; Raw 264.7): −18.47 ± 5.65 % ± SEM
Effect on LPS-induced NO production / anti-inflammatory activity (in words) ([1]; Raw 264.7): inactive
Effect on LPS-induced NO production / anti-inflammatory activity (in words) ([1]; Raw 264.7, listed as 10): no effect
Highest non-cytotoxic concentration tested [2]: 2593 µM and 400 µg/mL

CC(C)[C@@H]1CC[C@@H](C)CC1=O [(−)-menthone (14), (−)-menthone]
% inhibition of LPS-induced NO production ([1]; Raw 264.7): −9.88 ± 2.85 % ± SEM
Effect on LPS-induced NO production / anti-inflammatory activity (in words) ([1]; Raw 264.7): no effect
Highest non-cytotoxic concentration tested [2]: 1297 µM and 200 µg/mL

CC1=CC[C@@H](C(C)(C)O)CC1=O [(R)-8-hydroxycarvotanacetone (21), (R)-5-(2-hydroxypropan-2-yl)-2-methylcyclohex-2-en-1-one]
IC50 [1]: 842 µM and 142 µg/mL
Decrease (inhibition) of LPS-induced NO production ([1]; Raw 264.7): greater than 30%
% inhibition of LPS-induced NO production ([1]; Raw 264.7): 76.25 ± 1.97 % ± SEM
Effect on LPS-induced NO production / anti-inflammatory activity (in words) ([1]; Raw 264.7): significant activity
Highest non-cytotoxic concentration tested [2]: 2378 µM and 400 µg/mL
